Results on 18 molecules are retold here after patent publication US12173007B2, “Imidazopyridazine IL-17 inhibitor compounds” (Janssen Pharmaceutica NV, priority 2021, dated 2024).

Where only a bound is given, the exact number is not on record here.

The subject of one assay is IL-17A-induced G-CSF production in human normal keratinocyte (NHK). Briefly: NHK assay: IL-17A-induced G-CSF production in normal human keratinocytes. In kind it is cell-based. Particulars: Homo sapiens, Keratinocyte, 24 h, IL-17A 5 ng/mL, G-CSF by HTRF, average if tested more than once. As for the experimental part: IL-17A acts directly on keratinocytes through binding to dimeric receptor IL-17RA/RC and drives the production of a number of inflammatory mediators known to be elevated in psoriasis lesional tissue. IL-17A small molecule inhibitors that block the IL-17A to interact with IL-17R would inhibit the IL-17A signaling in its targeted cells such as keratinocytes. The compound functional activity is evaluated for its impact on IL-17A-induced G-CSF production in human normal keratinocyte (NHK).
Adult normal human keratinocytes are cultured in keratinocyte growth medium (Lonza) in a flask till reaching ˜90% confluence, then cells are transferred to a 384-well plate at density of 3000-4000 cell/well. Recombinant human IL-17A (Gibco PHC9174) is pre-incubated with titrated compound or DMSO for 1 h at rt then added to the cell culture plate. The final concentration of IL-17A is 5 ng/mL and DMSO is 0.2%, in the culture containing 5% FBS. Cells are cultured/treated for 24 h at 37° C. Supernatants are collected and G-CSF production is measured through HTRF technology using Human G-CSF Kit (CisBio). G-CSF concentration was extrapolated from the standard curve and IC50 is determined using GraphPad Prism. Cell viability is also evaluated using CellTiter-Glo kit (Promega) and effect of compound on cell viability is compared to DMSO control.
For orientation: IC50 means the concentration at which inhibition is half-maximal. Read a low IC50 as inhibition by little substance. Consider `COC[C@H](c1cnn2cc([C@@H](NC(=O)c3nonc3C3CC3)[C@H]3[C@@H]4CC(F)(F)C[C@@H]43)nc2c1)N1CC(F)(F)CNC1=O` (relative stereo) [Example 51, 4-Cyclopropyl-N—((S*)-(7-((S)-1-(5,5-difluoro-2-oxotetrahydropyrimidin-1(2H)-yl)-2-methoxyethyl)imidazo[1,2-b]pyridazin-2-yl)((1R,5S,6r)-3,3-difluorobicyclo[3.1.0]hexan-6-yl)methyl)-1,2,5-oxadiazole-3-carboxamide], for which the IC50 is less than 50 nM. The molecule `COC[C@H](c1cnn2cc([C@H](NC(=O)c3nonc3C3CC3)[C@@H]3CCC(F)(F)C3)nc2c1)N1CC(F)(F)CNC1=O` (relative stereo) [Example 52, 4-Cyclopropyl-N—((R*)-(7-((S)-1-(5,5-difluoro-2-oxotetrahydropyrimidin-1(2H)-yl)-2-methoxyethyl)imidazo[1,2-b]pyridazin-2-yl)((R*)-3,3-difluorocyclopentyl)methyl)-1,2,5-oxadiazole-3-carboxamide] yielded an IC50 of less than 50 nM. Still for that read-out and setting: as for `COC[C@H](c1cnn2cc([C@@H](NC(=O)c3nonc3C)[C@@H](C)OC(C)(C)C(F)(F)F)nc2c1)N1CC(F)(F)CNC1=O` (relative stereo) [Example 60, N-((1R*,2R*)-1-(7-((S)-1-(5,5-Difluoro-2-oxotetrahydropyrimidin-1(2H)-yl)-2-methoxyethyl)imidazo[1,2-b]pyridazin-2-yl)-2-((1,1,1-trifluoro-2-methylpropan-2-yl)oxy)propyl)-4-methyl-1,2,5-oxadiazole-3-carboxamide], the figure is less than 50 nM; as for `CCOCC(c1cnn2cc([C@@H](NC(=O)c3nonc3C)C3CCC(F)(F)CC3)nc2c1)N1CC(F)(F)CNC1=O` (single isomer, unassigned) [Example 35, N—((S)-(7-((S*)-1-(5,5-Difluoro-2-oxotetrahydropyrimidin-1(2H)-yl)-2-ethoxyethyl)imidazo[1,2-b]pyridazin-2-yl)(4,4-difluorocyclohexyl)methyl)-4-methyl-1,2,5-oxadiazole-3-carboxamide], less than 50 nM; as for `CCOCC(c1cnn2cc([C@@H](NC(=O)c3nonc3C3CC3)C3CCC(F)(F)CC3)nc2c1)N1CC(F)(F)CNC1=O` (single isomer, unassigned) [Example 36, 4-Cyclopropyl-N—((S)-(7-((S*)-1-(5,5-difluoro-2-oxotetrahydropyrimidin-1(2H)-yl)-2-ethoxyethyl)imidazo[1,2-b]pyridazin-2-yl)(4,4-difluorocyclohexyl)methyl)-1,2,5-oxadiazole-3-carboxamide], less than 50 nM. The same measure, in the same setting: as for `COC[C@H](c1cnn2cc(C(CCC(C)(C)C(F)(F)F)NC(=O)c3nonc3C3CC3)nc2c1)N1CC(F)(F)CNC1=O` (single isomer, unassigned) [Example 46, 4-Cyclopropyl-N—((S*)-1-(7-((S)-1-(5,5-difluoro-2-oxotetrahydropyrimidin-1(2H)-yl)-2-methoxyethyl)imidazo[1,2-b]pyridazin-2-yl)-5,5,5-trifluoro-4,4-dimethylpentyl)-1,2,5-oxadiazole-3-carboxamide], the figure is less than 50 nM; as for `Cc1nonc1C(=O)N[C@H](c1cn2ncc([C@@H](C3CC3)N3CCC(C(F)(F)F)NC3=O)cc2n1)C1CCC(F)(F)CC1` (single isomer, unassigned) [Example 48, N—((S)-(7-((R)-Cyclopropyl((S*)-2-oxo-4-(trifluoromethyl)tetrahydropyrimidin-1(2H)-yl)methyl)imidazo[1,2-b]pyridazin-2-yl)(4,4-difluorocyclohexyl)methyl)-4-methyl-1,2,5-oxadiazole-3-carboxamide], greater than 100 nM. Still for that read-out and setting: as for `Cc1nonc1C(=O)N[C@H](c1cn2ncc(C(COC3CCC3)N3CC(F)(F)CNC3=O)cc2n1)C1CCC(F)(F)CC1` (single isomer, unassigned) [Example 57, N—((S)-(7-((S*)-2-Cyclobutoxy-1-(5,5-difluoro-2-oxotetrahydropyrimidin-1(2H)-yl)ethyl)imidazo[1,2-b]pyridazin-2-yl)(4,4-difluorocyclohexyl)methyl)-4-methyl-1,2,5-oxadiazole-3-carboxamide], the figure is less than 50 nM; as for `Cc1nonc1C(=O)N[C@H](c1cn2ncc(C(COC(C)C)N3CC(F)(F)CNC3=O)cc2n1)C1CCC(F)(F)CC1` (single isomer, unassigned) [Example 58, N—((S)-(7-((S*)-1-(5,5-Difluoro-2-oxotetrahydropyrimidin-1(2H)-yl)-2-isopropoxyethyl)imidazo[1,2-b]pyridazin-2-yl)(4,4-difluorocyclohexyl)methyl)-4-methyl-1,2,5-oxadiazole-3-carboxamide], less than 50 nM; as for `CC(C)n1nccc1C(=O)N[C@H](c1cn2ncc([C@@H](COC3CC3)N3CC(F)(F)CNC3=O)cc2n1)C1CCC(F)(F)CC1` [Example 37, N—((S)-(7-((S)-2-Cyclopropoxy-1-(5,5-difluoro-2-oxotetrahydropyrimidin-1(2H)-yl)ethyl)imidazo[1,2-b]pyridazin-2-yl)(4,4-difluorocyclohexyl)methyl)-1-isopropyl-1H-pyrazole-5-carboxamide], less than 50 nM. `Cc1nocc1C(=O)N[C@H](c1cn2ncc([C@@H](COC3CC3)N3CC(F)(F)CNC3=O)cc2n1)C1CCC(F)(F)CC1` [Example 38, N—((S)-(7-((S)-2-Cyclopropoxy-1-(5,5-difluoro-2-oxotetrahydropyrimidin-1(2H)-yl)ethyl)imidazo[1,2-b]pyridazin-2-yl)(4,4-difluorocyclohexyl)methyl)-3-methylisoxazole-4-carboxamide] came in with an IC50 of less than 50 nM. As for `COC[C@H](c1cnn2cc([C@H](CC(C)(C)C(F)(F)F)NC(=O)c3nonc3C3CC3)nc2c1)N1CC(F)(F)CNC1=O` [Example 41, 4-Cyclopropyl-N—((S)-1-(7-((S)-1-(5,5-difluoro-2-oxotetrahydropyrimidin-1(2H)-yl)-2-methoxyethyl)imidazo[1,2-b]pyridazin-2-yl)-4,4,4-trifluoro-3,3-dimethylbutyl)-1,2,5-oxadiazole-3-carboxamide], the IC50 was less than 50 nM. Same read-out and setting: as for `COC[C@H](c1cnn2cc([C@@H](NC(=O)c3nonc3C3CC3)[C@@H](C)O[C@H](C)C(F)(F)F)nc2c1)N1CC(F)(F)CNC1=O` [Example 42, 4-Cyclopropyl-N-((1R,2R)-1-(7-((S)-1-(5,5-difluoro-2-oxotetrahydropyrimidin-1(2H)-yl)-2-methoxyethyl)imidazo[1,2-b]pyridazin-2-yl)-2-(((R)-1,1,1-trifluoropropan-2-yl)oxy)propyl)-1,2,5-oxadiazole-3-carboxamide], the figure is less than 50 nM; as for `COC[C@H](c1cnn2cc([C@@H](NC(=O)c3nonc3C3CC3)[C@@H](C)O[C@@H](C)C(F)(F)F)nc2c1)N1CC(F)(F)CNC1=O` [Example 43, 4-Cyclopropyl-N-((1R,2R)-1-(7-((S)-1-(5,5-difluoro-2-oxotetrahydropyrimidin-1(2H)-yl)-2-methoxyethyl)imidazo[1,2-b]pyridazin-2-yl)-2-(((S)-1,1,1-trifluoropropan-2-yl)oxy)propyl)-1,2,5-oxadiazole-3-carboxamide], less than 50 nM.

`CC(C)(C[C@H](NC(=O)c1nonc1C1CC1)c1cn2ncc([C@@H](COC3CC3)N3CC(F)(F)CNC3=O)cc2n1)C(F)(F)F` [Example 44, N—((S)-1-(7-((S)-2-Cyclopropoxy-1-(5,5-difluoro-2-oxotetrahydropyrimidin-1(2H)-yl)ethyl)imidazo[1,2-b]pyridazin-2-yl)-4,4,4-trifluoro-3,3-dimethylbutyl)-4-cyclopropyl-1,2,5-oxadiazole-3-carboxamide]: the IC50 is less than 50 nM. The same measure, in the same setting: as for `Cc1nonc1C(=O)N[C@H](c1cn2ncc([C@@H](C3CC3)N3CCC4(CC4)NC3=O)cc2n1)C1CCC(F)(F)CC1` [Example 47, N—[(S)-[7-[(R)-Cyclopropyl-(7-oxo-6,8-diazaspiro[2.5]octan-6-yl)methyl]imidazo[1,2-b]pyridazin-2-yl]-(4,4-difluorocyclohexyl)methyl]-4-methyl-1,2,5-oxadiazole-3-carboxamide], the figure is greater than 100 nM.

The assay is the same for the next values; noted with them: IL-17A 5 ng/mL, 24 h, G-CSF by HTRF; average if tested more than once.
In the case of “4-Cyclopropyl-N—((R)-1-(7-((S)-1-(5,5-difluoro-2-oxotetrahydropyrimidin-1(2H)-yl-4,4,6,6-d4)-2-methoxyethyl)imidazo[1,2-b]pyridazin-2-yl)-2-((1,1,1-trifluoro-2-methylpropan-2-yl)oxy)ethyl)-1,2,5-oxadiazole-3-carboxamide [Example 39]”, the IC50 was less than 50 nM.

As to `Cc1nonc1C(=O)N[C@H](c1cn2ncc([C@@H](C3CC3)N3CCC(C(F)(F)F)NC3=O)cc2n1)C1CCC(F)(F)CC1` (single isomer, unassigned) [Example 49, N—((S)-(7-((R)-Cyclopropyl((R*)-2-oxo-4-(trifluoromethyl)tetrahydropyrimidin-1(2H)-yl)methyl)imidazo[1,2-b]pyridazin-2-yl)(4,4-difluorocyclohexyl)methyl)-4-methyl-1,2,5-oxadiazole-3-carboxamide], the half-inhibitory concentration (IC50) is greater than 100 nM.
